Laboratory results: patent publication US6346540B1, “1-(1,2-disubstituted pipeidinyl)-4-substituted piperidine derivatives” (Janssen Pharmaceutica N.V., priority 1995, dated 2002)

Legend:
[1] = tested on: guinea-pigs; assay: Antagonism of substance P induced plasma extravasation in guinea-pigs; assay type: in vivo; conditions: lowest active dose, compound given 1 hour prior to substance P, female guinea-pigs; for LAD conjunctiva / LAD forepaws / LAD nose: 10 minutes after challenge; for LAD trachea / LAD urinary bladder: 30 minutes after challenge
Experimental: Antagonism of Substance P Induced Plasma Extravasation in Guinea-pigs
Plasma extravasation was induced by injection of substance P (2 mg/kg) in the femoral artery of female guinea-pigs. Evans Blue dye (30 mg/kg) was injected simultaneously. The test compound or solvent was administered 1 hour prior to substance P injection. 10 minutes after challenge, the animals were checked for blue colouring (a direct measure for plasma extravasation) of the nose, the forepaws, and the conjunctiva. 30 minutes after challenge, the animals were sacrificed by CO2 gas inhalation and checked for blue coloring of the trachea and the urinary bladder. […]

| Compound | melting point | LAD conjunctiva [1] | LAD forepaws [1] | LAD nose [1] | LAD trachea [1] | LAD urinary bladder [1] |
| --- | --- | --- | --- | --- | --- | --- |
| O=C(c1cc(C(F)(F)F)cc(C(F)(F)F)c1)N1CC[C@@H](N2CCC(n3c(=O)[nH]c4ccccc43)CC2)C[C@@H]1Cc1ccccc1 (racemic) [Compound 43, (±)-trans-1-[3,5-bis(trifluoromethyl)benzoyl]-4-[4-(2,3-dihydro-2-oxo-1H-benzimidazol-1-yl)-1-piperidinyl]-2-(phenylmethyl)piperidine] | 156.1 °C | 2.5 mg/kg | 2.5 mg/kg | 2.5 mg/kg | 10 mg/kg | 10 mg/kg |
| COc1ccccc1C1(O)CCN([C@@H]2CCN(C(=O)c3cc(C)cc(C)c3)[C@@H](Cc3ccccc3)C2)CC1 (racemic) [Compound 17, (±)-trans-1-(3,5-dimethylbenzoyl)-4-[4-hydroxy-4-(2-methoxyphenyl)-1-piperidinyl]-2-(phenyl-methyl)piperidine] | 213.1 °C | – | – | – | – | – |
| O=C(c1cc(C(F)(F)F)cc(C(F)(F)F)c1)N1CC[C@@H](N2CCC(C(=O)N3CCCC3)(c3ccccc3)CC2)C[C@@H]1Cc1ccc(C(F)(F)F)cc1 (racemic) [Compound 112, (±)-trans-1-[3,5-bis(trifluoromethyl)benzoyl]-4-[4-phenyl-4-(1-pyrrolidinylcarbonyl)-1-piperidinyl]-2-[[4-(trifluoromethyl)phenyl]methyl]-piperidine] | – | 2.5 mg/kg | 2.5 mg/kg | 2.5 mg/kg | 2.5 mg/kg | 2.5 mg/kg |
| Cc1cc(C)cc(C(=O)N2CC[C@H](N3CCC(C(=O)O)(c4ccccc4)CC3)C[C@@H]2Cc2ccccc2)c1 (racemic) | 259.1 °C | – | – | – | – | – |

Further lines, with some results ahead:

| melting point | Compound | LAD conjunctiva [1] | LAD forepaws [1] | LAD nose [1] | LAD trachea [1] | LAD urinary bladder [1] |
| --- | --- | --- | --- | --- | --- | --- |
| 67.8 °C | Cc1cc(C)cc(C(=O)N2CC[C@@H](N3CCC(NCCc4ccccc4)CC3)C[C@@H]2Cc2ccccc2)c1 (racemic) [Compound 27, (±)-trans-1-(3,5-dimethylbenzoyl)-4-[4-[(2-phenylethyl)amino]-1-piperidinyl]-2-(phenylmethyl)piperidine] | – | – | – | – | – |
| 83.3 °C | Cc1cc(C)cc(C(=O)N2CC[C@@H](N3CCC(OC(=O)c4cc(Cl)cc(Cl)c4)CC3)C[C@@H]2Cc2ccccc2)c1 (racemic) [Compound 33, (±)-trans-1-[1-(3,5-dimethylbenzoyl)-2-(phenylmethyl)-4-piperidinyl]-4-piperidinyl 3,5-dichloro-benzoate] | – | – | – | – | – |
| 121.1 °C | Cc1cc(C)cc(C(=O)N2CC[C@H](N3CCC(NC(=O)c4ccccc4N)CC3)C[C@@H]2Cc2ccccc2)c1 (racemic) [Compound 24, (±)-cis-2-amino-N-[1-[1-(3,5-dimethylbenzoyl)-2-(phenylmethyl)-4-piperidinyl]-4-piperidinyl]benzamide] | – | – | – | – | – |
